Results from PubChem BioAssay AID1918955 (Molecular Pharmacology Branch, DTP, NCI, 2023).
Several values for one entry are separate records, joined by “and”; a condition that tells them apart may be missing. Equal values may be shown once. Blank lines part the entries; values can stand above or below the molecule they belong to.

Tested on: NCI/ADR-RES complex spheroid viability
Experiment: Anticancer human tumor NCI/ADR-RES cell line growth inhibition;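 on viability, T/C: 100% = DMSO vehicle treated spheroids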
Conditions: for viability, T/C: stronger effect = lower value
In short: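 Complex spheroids of tumor cells with HUVEC and human MSCs, exposed to iadademstat combined with other agents. Each agent tested in half-log steps from near clinical Cmax (else 10 microM top), DMSO ≤0.25%.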

[1] = curve of first compound, second compound 0.1 µM
[2] = curve of first compound, second compound 0.316 µM
[3] = curve of first compound, second compound 1 µM
[4] = curve of first compound, second compound 3.16 µM
[5] = curve of first compound, second compound 10 µM
[6] = second compound 0.1 µM, first compound 0.0316 µM
[7] = second compound 0.1 µM, first compound 0.1 µM
[8] = second compound 0.1 µM, first compound 0.316 µM
[9] = second compound 0.1 µM, first compound 1 µM
[10] = second compound 0.1 µM, first compound 3.16 µM
[11] = second compound 0.1 µM, first compound 10 µM
[12] = second compound 0.316 µM, first compound 0.0316 µM
[13] = second compound 0.316 µM, first compound 0.1 µM
[14] = second compound 0.316 µM, first compound 0.316 µM
[15] = second compound 0.316 µM, first compound 1 µM
[16] = second compound 0.316 µM, first compound 3.16 µM
[17] = second compound 0.316 µM, first compound 10 µM
[18] = second compound 1 µM, first compound 0.0316 µM
[19] = second compound 1 µM, first compound 0.1 µM
[20] = second compound 1 µM, first compound 0.316 µM
[21] = second compound 1 µM, first compound 1 µM
[22] = second compound 1 µM, first compound 3.16 µM
[23] = second compound 1 µM, first compound 10 µM
[24] = second compound 3.16 µM, first compound 0.0316 µM
[25] = second compound 3.16 µM, first compound 0.1 µM
[26] = second compound 3.16 µM, first compound 0.316 µM
[27] = second compound 3.16 µM, first compound 1 µM
[28] = second compound 3.16 µM, first compound 3.16 µM
[29] = second compound 3.16 µM, first compound 10 µM
[30] = second compound 10 µM, first compound 0.0316 µM
[31] = second compound 10 µM, first compound 0.1 µM
[32] = second compound 10 µM, first compound 0.316 µM
[33] = second compound 10 µM, first compound 1 µM
[34] = second compound 10 µM, first compound 3.16 µM
[35] = second compound 10 µM, first compound 10 µM
[36] = second compound 0.1 µM, first compound 0.00949 µM
[37] = second compound 0.1 µM, first compound 0.03 µM
[38] = second compound 0.1 µM, first compound 0.0949 µM
[39] = second compound 0.1 µM, first compound 0.3 µM
[40] = second compound 0.1 µM, first compound 0.949 µM
[41] = second compound 0.1 µM, first compound 3 µM
[42] = second compound 0.316 µM, first compound 0.00949 µM
[43] = second compound 0.316 µM, first compound 0.03 µM
[44] = second compound 0.316 µM, first compound 0.0949 µM
[45] = second compound 0.316 µM, first compound 0.3 µM
[46] = second compound 0.316 µM, first compound 0.949 µM
[47] = second compound 0.316 µM, first compound 3 µM
[48] = second compound 1 µM, first compound 0.00949 µM
[49] = second compound 1 µM, first compound 0.03 µM
[50] = second compound 1 µM, first compound 0.0949 µM
[51] = second compound 1 µM, first compound 0.3 µM
[52] = second compound 1 µM, first compound 0.949 µM
[53] = second compound 1 µM, first compound 3 µM
[54] = second compound 3.16 µM, first compound 0.00949 µM
[55] = second compound 3.16 µM, first compound 0.03 µM
[56] = second compound 3.16 µM, first compound 0.0949 µM
[57] = second compound 3.16 µM, first compound 0.3 µM
[58] = second compound 3.16 µM, first compound 0.949 µM
[59] = second compound 3.16 µM, first compound 3 µM
[60] = second compound 10 µM, first compound 0.00949 µM
[61] = second compound 10 µM, first compound 0.03 µM
[62] = second compound 10 µM, first compound 0.0949 µM
[63] = second compound 10 µM, first compound 0.3 µM
[64] = second compound 10 µM, first compound 0.949 µM
[65] = second compound 10 µM, first compound 3 µM

SMILES: CC1COCCN1c1cc(C2(S(C)(=N)=O)CC2)nc(-c2ccnc3[nH]ccc23)n1 (centres undefined) + NC1CC1c1ccc(-c2cccc(O)c2)cc1
IC50 [1]: 7 µM
IC50 [2]: 9.41 µM
IC50 [3]: 6.18 µM
IC50 [4]: 6.48 µM
IC50 [5]: 5.36 µM
viability, T/C [6]: 108%
viability, T/C [7]: 108%
viability, T/C [8]: 97.4%
viability, T/C [9]: 90%
viability, T/C [10]: 71.5%
viability, T/C [11]: 40.4%
viability, T/C [12]: 110%
viability, T/C [13]: 104%
viability, T/C [14]: 103%
viability, T/C [15]: 91.8%
viability, T/C [16]: 73.2%
viability, T/C [17]: 48.7%
viability, T/C [18]: 96.4%
viability, T/C [19]: 97.4%
viability, T/C [20]: 93.8%
viability, T/C [21]: 90.1%
viability, T/C [22]: 64.8%
viability, T/C [23]: 39.4%
viability, T/C [24]: 101%
viability, T/C [25]: 95.1%
viability, T/C [26]: 95.8%
viability, T/C [27]: 86%
viability, T/C [28]: 65.4%
viability, T/C [29]: 40.6%
viability, T/C [30]: 93.2%
viability, T/C [31]: 94.1%
viability, T/C [32]: 84.9%
viability, T/C [33]: 71.6%
viability, T/C [34]: 61.3%
viability, T/C [35]: 38.5%

IC50 (curve of compound): 3.81 µM and 2.98 µM
SMILES: COc1ccc([C@@H](O)c2cc(-c3ncnc4cc(N5CCOCC5)ccc34)c(F)cc2Cl)nn1
viability, T/C (compound 0.0316 µM): 106%
viability, T/C (compound 0.1 µM): 99.9% and 99.3%
viability, T/C (compound 0.316 µM): 87.1% and 94.3%
viability, T/C (compound 1 µM): 77.2% and 72.6%
viability, T/C (compound 3.16 µM): 52.9% and 49.2%
viability, T/C (compound 10 µM): 28.3% and 28%

SMILES: O=C(c1cc(Cc2n[nH]c(=O)c3ccccc23)ccc1F)N1CCN(C(=O)C2CC2)CC1 + NC1CCC(NC2CC2c2ccccc2)CC1
IC50 [1]: > 10 µM
IC50 [2]: > 10 µM
IC50 [3]: > 10 µM
IC50 [4]: > 10 µM
IC50 [5]: > 10 µM
viability, T/C [6]: 99.8%
viability, T/C [7]: 97.5%
viability, T/C [8]: 104%
viability, T/C [9]: 102%
viability, T/C [10]: 102%
viability, T/C [11]: 87.6%
viability, T/C [12]: 109%
viability, T/C [13]: 101%
viability, T/C [14]: 105%
viability, T/C [15]: 111%
viability, T/C [16]: 96.2%
viability, T/C [17]: 101%
viability, T/C [18]: 100%
viability, T/C [19]: 108%
viability, T/C [20]: 112%
viability, T/C [21]: 107%
viability, T/C [22]: 105%
viability, T/C [23]: 91.5%
viability, T/C [24]: 99.1%
viability, T/C [25]: 102%
viability, T/C [26]: 97.4%
viability, T/C [27]: 96%
viability, T/C [28]: 104%
viability, T/C [29]: 87.3%
viability, T/C [30]: 94.8%
viability, T/C [31]: 97.4%
viability, T/C [32]: 93.1%
viability, T/C [33]: 88.8%
viability, T/C [34]: 92.5%
viability, T/C [35]: 91.7%

IC50 (curve of compound): > 10 µM
SMILES: CC1(C)CCC(CN2CCN(c3ccc(C(=O)NS(=O)(=O)c4ccc(NCC5CCOCC5)c([N+](=O)[O-])c4)c(Oc4cnc5[nH]ccc5c4)c3)CC2)=C(c2ccc(Cl)cc2)C1
viability, T/C (compound 0.0316 µM): 99.8% and 108%
viability, T/C (compound 0.1 µM): 108% and 106%
viability, T/C (compound 0.316 µM): 101% and 106%
viability, T/C (compound 1 µM): 104% and 105%
viability, T/C (compound 3.16 µM): 101% and 104%
viability, T/C (compound 10 µM): 94.1% and 90%

SMILES: NS(=O)(=O)OCC1CC(n2ccc3c(NC4CCc5ccccc54)ncnc32)CC1O (centres undefined) + NC1CC1c1ccc(-c2cccc(O)c2)cc1
IC50 [1]: 1.13 µM
IC50 [2]: 1.03 µM
IC50 [3]: 1.16 µM
IC50 [4]: 1.11 µM
IC50 [5]: 1.13 µM
viability, T/C [36]: 99.2%
viability, T/C [37]: 90.5%
viability, T/C [38]: 92.1%
viability, T/C [39]: 78.4%
viability, T/C [40]: 55%
viability, T/C [41]: 20.6%
viability, T/C [42]: 96.7%
viability, T/C [43]: 100%
viability, T/C [44]: 85.9%
viability, T/C [45]: 77.5%
viability, T/C [46]: 51.6%
viability, T/C [47]: 22.2%
viability, T/C [48]: 98.5%
viability, T/C [49]: 88.4%
viability, T/C [50]: 86.7%
viability, T/C [51]: 78.6%
viability, T/C [52]: 54.5%
viability, T/C [53]: 23.2%
viability, T/C [54]: 96.8%
viability, T/C [55]: 94.8%
viability, T/C [56]: 86.3%
viability, T/C [57]: 77%
viability, T/C [58]: 54.3%
viability, T/C [59]: 22.2%
viability, T/C [60]: 92%
viability, T/C [61]: 89.9%
viability, T/C [62]: 81%
viability, T/C [63]: 75.1%
viability, T/C [64]: 53.3%
viability, T/C [65]: 27%

SMILES: COc1cc(C2c3cc4c(cc3C(OC3OC5COC(C)OC5C(O)C3O)C3COC(=O)C23)OCO4)cc(OC)c1O (centres undefined) + NC1CCC(NC2CC2c2ccccc2)CC1
IC50 [1]: > 3 µM
IC50 [2]: > 3 µM
IC50 [3]: > 3 µM
IC50 [4]: > 3 µM
IC50 [5]: > 3 µM
viability, T/C [36]: 92.9%
viability, T/C [37]: 103%
viability, T/C [38]: 99.4%
viability, T/C [39]: 100%
viability, T/C [40]: 98.3%
viability, T/C [41]: 91.1%
viability, T/C [42]: 101%
viability, T/C [43]: 101%
viability, T/C [44]: 103%
viability, T/C [45]: 100%
viability, T/C [46]: 95.6%
viability, T/C [47]: 94.4%
viability, T/C [48]: 98.8%
viability, T/C [49]: 96.5%
viability, T/C [50]: 95.8%
viability, T/C [51]: 96.6%
viability, T/C [52]: 94.7%
viability, T/C [53]: 91.3%
viability, T/C [54]: 96.9%
viability, T/C [55]: 91.8%
viability, T/C [56]: 99.2%
viability, T/C [57]: 97.3%
viability, T/C [58]: 94.5%
viability, T/C [59]: 86.1%
viability, T/C [60]: 93%
viability, T/C [61]: 92%
viability, T/C [62]: 86.3%
viability, T/C [63]: 90.3%
viability, T/C [64]: 81.6%
viability, T/C [65]: 82%

SMILES: Nc1ncn(C2CC(O)C(CO)O2)c(=O)n1 (centres undefined) + NC1CCC(NC2CC2c2ccccc2)CC1
IC50 [1]: 0.0827 µM
IC50 [2]: 0.126 µM
IC50 [3]: 0.0767 µM
IC50 [4]: 0.0597 µM
IC50 [5]: 0.0185 µM
viability, T/C (second compound 0.1 µM, first compound 0.00316 µM): 109%
viability, T/C (second compound 0.1 µM, first compound 0.01 µM): 113%
viability, T/C [6]: 73.4%
viability, T/C [7]: 48.6%
viability, T/C [8]: 26.1%
viability, T/C [9]: 23.5%
viability, T/C (second compound 0.316 µM, first compound 0.00316 µM): 106%
viability, T/C (second compound 0.316 µM, first compound 0.01 µM): 91%
viability, T/C [12]: 78.3%
viability, T/C [13]: 53%
viability, T/C [14]: 33.8%
viability, T/C [15]: 18.9%
viability, T/C (second compound 1 µM, first compound 0.00316 µM): 105%
viability, T/C (second compound 1 µM, first compound 0.01 µM): 91.7%
viability, T/C [18]: 74.6%
viability, T/C [19]: 41%
viability, T/C [20]: 28.2%
viability, T/C [21]: 19.4%
viability, T/C (second compound 3.16 µM, first compound 0.00316 µM): 93.3%
viability, T/C (second compound 3.16 µM, first compound 0.01 µM): 83.3%
viability, T/C [24]: 63.1%
viability, T/C [25]: 40%
viability, T/C [26]: 24.1%
viability, T/C [27]: 20.8%
viability, T/C (second compound 10 µM, first compound 0.00316 µM): 63%
viability, T/C (second compound 10 µM, first compound 0.01 µM): 57.8%
viability, T/C [30]: 43.1%
viability, T/C [31]: 27.3%
viability, T/C [32]: 17.2%
viability, T/C [33]: 15.9%
